Measured values taken from patent US9974782B2, “Phosphodiesterase inhibitors and uses thereof” (THE TRUSTEES OF COLUMBIA UNIVERSITY IN THE CITY OF NEW YORK, priority 2008, dated 2018).
Values joined by “and” are separate entries in the source; they are usually repeats but may differ in a detail not shown here. Identical values can stand only once. “Also recorded” adds a separate entry of the source.

Columns and labels:
[1] = target: PDE5A1 (Homo sapiens, UniProt O76074); experiment: PDE assay for compound screening (IMAP TR-FRET kit, FAM-cGMP, fluorescence polarization); assay type: biochemical; conditions: 100 nM cGMP substrate; read-out: IC50 for PDE5
Procedure: Protocol of PDE Assay for Compound Screening
Materials: IMAPTM TR-FRET Screening Express with Progressive Binding Kit from Molecular Devices (R8160); FAM-Cyclic-3′,5′-GMP from Molecular Devices (R7507); PDE5 inhibitors.
Step 1: A dilution series of the inhibitors ranging from 300 pM to 10 μM in 1× PDE Assay Buffer are made. Subsequently, FAM-cGMP is diluted to 200 nM in 1×PDE Assay Buffer. PDE5A1 enzymes are then diluted to 0.125 ng/μl in 1×PDE Assay Buffer.
Step 2: The following components are added to a low binding black plate: a) […] of 200 nM FAM-cGMP (Final concentration will be 100 nM); b) 5 μl of the compounds (Final concentration=30 pM to 1 μM); c) 20 μl of PDE5A1 (0.125 ng/l) (Final amount=2.5 ng/reaction). The components are mixed and incubated at room temp. for 1 hour.
Step 3: A 1× reagent-binding buffer (75% 1× Binding Buffer A and 25% 1× Binding Buffer B) is then prepared followed by a Binding Solution that is prepared by diluting Binding Reagent with 1× reagent-binding Buffer (1:600). 120 μl of Binding Solution is then added to each well and the plate is incubated at room temperature for 1 hour.
Step 4: Fluorescence polarization is measured at excitation of 485 nm and emission of 520 nm in BioTek Synergy™ 2 microplate reader.

[2] = system: CA1 region of hippocampal slices from APP/PS1 and WT mice; experiment: Electrophysiological analysis (BST, LTP) of hippocampal slices perfused with inhibitor; assay type: cell-based, mouse; conditions: for effect on LTP impairment in words: slices from APP/PS1 (transgenic) mice, 10 min prior to tetanus
[3] = Pharmacokinetics testing, plasma and brain (LC-MS/MS)
Procedure: The pharmacokinetic studies were conducted in male BABL/c mice. The blood and brain samples were collected at predetermined times from three mice per time point. […] An LC-MS/MS method was developed to determine these compounds in plasma and brain samples.
Quantification was achieved by the internal standard method using peak area ratios of the analysis to the internal standard in plasma and brain. Concentrations were calculated using a weighted least-squares linear regression (W=1/×2). The major pharmacokinetic parameters were calculated and the brain-to-plasma distribution ratios were estimated.
The PDE5 inhibitor was prepared by dissolving the test article in 0.5% methyl cellulose to yield final concentrations at 5 mg/mL for PO administration.
Mice were sacrificed by cervical dislocation after blood harvest. The plasma were separated via centrifugation (4° C., 3500 rpm, 10 min) and stored in −80° C. before analysis.
Frozen unknown plasma samples were thawed at room temperature and vortexed thoroughly. With a pipette, 25 μL of plasma was transferred into a 1.5 mL Eppendorf tube. To each sample, 25 μL of methanol and 25 μL of the internal standard were added, followed by the addition of 100-μL methanol. The sample mixture was vortexed for approximately 1 min. After centrifugation at 11000 g for 5 min, the upper organic layer was transferred to a glass tube and evaporated at 40° C. under a gentle stream of nitrogen. Residues were dissolved in 150 μL of the mobile phase, and mixed in a vortex mixer. A 20-μL aliquot of the resulting solution was injected onto the LC/MS/MS system for analysis.
Brains were collected immediately after mice death. The brains were excised, weighed, and rinsed by cold saline and then frozen at −80° C. until further process for LC/MS/MS analysis.
On the day of the assay, the frozen tissue samples were thawed unassisted at room temperature. When completely thawed, each tissue sample of 200 mg was weighed and placed into a plastic tube. Methanol (1.0 mL) was added to facilitate homogenization, which was conducted using a Fluko F6/10 superfine homogenizer for approximately 1 min. Then, the homogenized samples were vortexed for 1 min. A 25-μL aliquot of the homogenized samples was transferred into an Eppendorf tube. To each sample, 25 μL of methanol and 25 μL of the internal standard were added. The sample mixture centrifuged at 11000 g for 5 min. A 20-μL aliquot of the supernatants was diluted to 80 μL or 60 μL with the mobile phase and a 10-μL aliquot was injected onto the LC/MS/MS system for analysis.
We then investigated the PK and BBB penetration capability of YF012403. After p.o. administration at 50 mg/kg to BABL/c mice, plasma and brain concentrations were determined by the LC-MS/MS.

[4] = system: mice infused with Aβ42; experiment: Contextual fear memory in mice infused with Aβ42; assay type: in vivo, mouse; conditions: 3 or 10 mg/Kg, p.o., immediately after training
Procedure: Our next goal was to check if YF012403 can attenuate synaptic and cognitive dysfunction in APP/PS1 mice. We induced LTP or contextual fear memory in the presence of oligomeric Aβ42, or vehicle [S18]. In the LTP experiments 200 nM Aβ42 or vehicle were perfused through the bath solution for 20 min prior to the application of the θ-burst. In the behavioral experiments 200 nM Aβ42 or vehicle were bilaterally infused 15 min prior to the foot shock into dorsal hippocampus of the animal that had been pre-implanted with a cannula the week before. Aβ reduced LTP and contextual fear memory (FIG. 49). However, YF012403 (50 nM, for 10 min prior to the θ-burst in the LTP experiments; 3 or 10 mg/Kg, p.o., immediately after training in the behavioral experiments) ameliorated the electrophysiological and behavioral deficits (FIG. 49).

[5] = humans; cited from earlier work
[6] = male, BABL/c, mouse, in vivo, po, 50 mg/kg, half-life in the brain
[7] = male, BABL/c, mouse, in vivo, po, 50 mg/kg, half-life in the plasma
[8] = APP/PS1 slices, sildenafil 50 nM
[9] = WT slices, 120 min after tetanus, sildenafil 50 nM, tadalafil 50 nM, IC354 1 μM
[10] = WT slices, sildenafil or tadalafil 50 nM
[11] = slices of 3-month-old APP/PS1 mice, 120 min after tetanus, 10 min perfusion (sildenafil 50 nM, tadalafil 50 nM, IC354 1 μM)

For `COc1ccc(CNc2c(CO)cnc3c(C4CC4)cc(C#N)cc23)cc1Cl` [YF012403, 4-(3-chloro-4-methoxybenzylamino)-8-cyclopropyl-3-(hydroxymethyl)-quinoline-6-carbonitrile], the IC50 [1] was 1.2 nM and 0.27 nM, the “effect on LTP impairment in words” value [2] was “rescues the defect in LTP” and the Kp ([3]; male, BABL/c, mouse, brain, oral, 50 mg/kg) was 0.41. The Cmax ([3]; male, BABL/c, mouse, in vivo, po, 50 mg/kg) was 385 ng/g, the half-life [3, 6] was 1.04 h and the half-life [3, 7] was 1.33 h. The “log BB” value ([3]; mouse, in vivo) was −0.38, the “time of peak plasma concentration after dosing” value ([3]; p.o., 50 mg/kg, BABL/c mice) was 0.5 h and the “effect on contextual fear memory deficit in Aβ42-infused mice in words” value [4] was “ameliorates the contextual fear memory deficit; also recorded: ameliorated”.
With `CCCc1nn(C)c2c(=O)[nH]c(-c3cc(S(=O)(=O)N4CCN(C)CC4)ccc3OCC)nc12` [sildenafil, 5-[2-ethoxy-5-(4-methyl-1-piperazinylsulphonyl)phenyl]-1-methyl-3-n-propyl-1,6-dihydro-7H-pyrazolo[4,3-d]pyrimidin-7-one] the “basal neurotransmission without tetanus as % of vehicle-treated WT slices” value [2, 8] was roughly 96%, the “basal neurotransmission without tetanus, fEPSP % of baseline” value [2, 8] was 99.99±3.71% and the “LTP, fEPSP slope as % of baseline” value [2, 9] was 213.26±13.66%. The “level of LTP as % of vehicle-treated WT slices” value [2, 9] was roughly 99%, the “basal synaptic responses without tetanus as % of vehicle-treated WT slices” value [2, 10] was roughly 97% and the “basal synaptic responses without tetanus, fEPSP % of baseline” value [2, 10] was 100.51±2.34%. The “effect on LTP impairment in words” value [2] was “reverses LTP impairment”, the “minimum effective dose that completely rescues synaptic plasticity” value ([2]; slices of 3-month-old APP/PS1 mice) was 50 nM and the “LTP, fEPSP slope as % of baseline” value [2, 11] was 215.08±11.85%. For the same molecule, the “level of LTP as % of vehicle-treated WT littermates” value [2, 11] was roughly 100%, the “LTP as % of vehicle-treated WT slices” value ([2]; slices of 6 month old APP/PS1 mice, 500 nM) was 93% and the “minimum effective dose that completely rescues LTP” value ([2]; slices of 6 month old APP/PS1 mice, 10 min bath application) was 500 nM. The “effect on BST (fEPSP slope) in words” value ([2]; slices of 6 month old APP/PS1 mice, different concentrations) was “do not change fEPSP slope”, the half-life [3, 6] was 0.84 h and the half-life [3, 7] was 1.21 h. For the same molecule, the in vivo half-life [5] was roughly 4 h.
